What was measured:
[1] = target: Serine/threonine-protein kinase Nek1 (Homo sapiens) (UniProt Q96PY6); details: Compound concentration 1000.0 nM
[2] = target: Ephrin type-A receptor 7 (Homo sapiens) (UniProt Q15375); details: Compound concentration 1000.0 nM
[3] = target: Wee1-like protein kinase (Homo sapiens) (UniProt P30291); details: Compound concentration 1000.0 nM
[4] = target: Dual specificity mitogen-activated protein kinase kinase 7 (Homo sapiens) (UniProt O14733); details: Compound concentration 1000.0 nM
[5] = target: Homeodomain-interacting protein kinase 3 (Homo sapiens) (UniProt Q9H422); details: Compound concentration 1000.0 nM
[6] = target: Receptor-interacting serine/threonine-protein kinase 4 (Homo sapiens) (UniProt P57078); details: Compound concentration 1000.0 nM
[7] = target: Serine/threonine-protein kinase mTOR (Homo sapiens) (UniProt P42345); details: Compound concentration 1000.0 nM
[8] = target: Tyrosine-protein kinase receptor UFO (Homo sapiens) (UniProt P30530); details: Compound concentration 1000.0 nM
[9] = target: Cyclin-dependent kinase 11A (Homo sapiens) (UniProt Q9UQ88); details: Compound concentration 1000.0 nM
[10] = target: Ephrin type-A receptor 2 (Homo sapiens) (UniProt P29317); details: Compound concentration 1000.0 nM
[11] = target: Casein kinase I isoform alpha-like (Homo sapiens) (UniProt Q8N752); details: Compound concentration 1000.0 nM
[12] = target: Fibroblast growth factor receptor 2 (Homo sapiens) (UniProt P21802); details: Compound concentration 1000.0 nM
[13] = target: Mitogen-activated protein kinase kinase kinase 2 (Homo sapiens) (UniProt Q9Y2U5); details: Compound concentration 1000.0 nM
[14] = test system: Tyrosine-protein kinase ABL1 (Homo sapiens), P00519 [F317L]; details: Compound concentration 1000.0 nM
[15] = target: Ribosomal protein S6 kinase alpha-5 (Homo sapiens) (UniProt O75582); details: Compound concentration 1000.0 nM
[16] = target: Tyrosine-protein kinase JAK3 (Homo sapiens) (UniProt P52333); details: Compound concentration 1000.0 nM
[17] = target: Serine/threonine-protein kinase MARK2 (Homo sapiens) (UniProt Q7KZI7); details: Compound concentration 1000.0 nM
[18] = target: Vascular endothelial growth factor receptor 3 (Homo sapiens) (UniProt P35916); details: Compound concentration 1000.0 nM
[19] = target: Ribosomal protein S6 kinase alpha-4 (Homo sapiens) (UniProt O75676); details: Compound concentration 1000.0 nM
[20] = target: Tyrosine-protein kinase SYK (Homo sapiens) (UniProt P43405); details: Compound concentration 1000.0 nM
[21] = target: Activin receptor type-1-like (Homo sapiens) (UniProt P37023); details: Compound concentration 1000.0 nM
[22] = target: Platelet-derived growth factor receptor alpha (Homo sapiens) (UniProt P16234); details: Compound concentration 1000.0 nM
[23] = target: Beta-1 adrenergic receptor (Homo sapiens) (UniProt P08588); details: Compound concentration 10.0 uM
[24] = test system: Receptor-type tyrosine-protein kinase FLT3 (Homo sapiens), P36888 [UNDEFINED MUTATION]; details: Compound concentration 1000.0 nM
[25] = test system: Mast/stem cell growth factor receptor Kit (Homo sapiens), P10721 [V559D,V654A]; details: Compound concentration 1000.0 nM
[26] = target: NUAK family SNF1-like kinase 1 (Homo sapiens) (UniProt O60285); details: Compound concentration 1000.0 nM
[27] = target: Serine/threonine-protein kinase 32C (Homo sapiens) (UniProt Q86UX6); details: Compound concentration 1000.0 nM
[28] = target: Dual specificity protein kinase CLK2 (Homo sapiens) (UniProt P49760); details: Compound concentration 1000.0 nM
[29] = target: Serine/threonine-protein kinase 3 (Homo sapiens) (UniProt Q13188); details: Compound concentration 1000.0 nM
[30] = target: MAP kinase-interacting serine/threonine-protein kinase 1 (Homo sapiens) (UniProt Q9BUB5); details: Compound concentration 1000.0 nM
[31] = test system: Tyrosine-protein kinase ABL1 (Homo sapiens), P00519 [T315I]; details: Compound concentration 1000.0 nM
[32] = target: Serine/threonine-protein kinase pim-1 (Homo sapiens) (UniProt P11309); details: Compound concentration 1000.0 nM
[33] = target: Phosphatidylinositol 3-kinase C2 domain-containing subunit gamma (Homo sapiens) (UniProt O75747); details: Compound concentration 1000.0 nM
[34] = target: Serine/threonine-protein kinase WNK2 (Homo sapiens) (UniProt Q9Y3S1); details: Compound concentration 1000.0 nM
[35] = target: Calcium/calmodulin-dependent protein kinase type 1B (Homo sapiens) (UniProt Q6P2M8); details: Compound concentration 1000.0 nM
[36] = target: Calcium/calmodulin-dependent protein kinase type II subunit beta (Homo sapiens) (UniProt Q13554); details: Compound concentration 1000.0 nM
[37] = test system: Tyrosine-protein kinase ABL1 (Homo sapiens), P00519 [E255K]; details: Compound concentration 1000.0 nM
[38] = target: Cyclin-dependent kinase-like 5 (Homo sapiens) (UniProt O76039); details: Compound concentration 1000.0 nM
[39] = target: Aurora kinase B (Homo sapiens) (UniProt Q96GD4); details: Compound concentration 1000.0 nM
[40] = target: Serine/threonine-protein kinase PknB (Mycobacterium tuberculosis) (UniProt P9WI81); details: Compound concentration 1000.0 nM
[41] = target: Mitogen-activated protein kinase kinase kinase 14 (Homo sapiens) (UniProt Q99558); details: Compound concentration 1000.0 nM
[42] = target: RAF proto-oncogene serine/threonine-protein kinase (Homo sapiens) (UniProt P04049); details: Compound concentration 1000.0 nM
[43] = target: Ephrin type-A receptor 6 (Homo sapiens) (UniProt Q9UF33); details: Compound concentration 1000.0 nM
[44] = target: RAC-beta serine/threonine-protein kinase (Homo sapiens) (UniProt P31751); details: Compound concentration 1000.0 nM
[45] = target: LIM domain kinase 2 (Homo sapiens) (UniProt P53671); details: Compound concentration 1000.0 nM

Platelet-derived growth factor receptor alpha (Homo sapiens), sequence (P16234 whole entry): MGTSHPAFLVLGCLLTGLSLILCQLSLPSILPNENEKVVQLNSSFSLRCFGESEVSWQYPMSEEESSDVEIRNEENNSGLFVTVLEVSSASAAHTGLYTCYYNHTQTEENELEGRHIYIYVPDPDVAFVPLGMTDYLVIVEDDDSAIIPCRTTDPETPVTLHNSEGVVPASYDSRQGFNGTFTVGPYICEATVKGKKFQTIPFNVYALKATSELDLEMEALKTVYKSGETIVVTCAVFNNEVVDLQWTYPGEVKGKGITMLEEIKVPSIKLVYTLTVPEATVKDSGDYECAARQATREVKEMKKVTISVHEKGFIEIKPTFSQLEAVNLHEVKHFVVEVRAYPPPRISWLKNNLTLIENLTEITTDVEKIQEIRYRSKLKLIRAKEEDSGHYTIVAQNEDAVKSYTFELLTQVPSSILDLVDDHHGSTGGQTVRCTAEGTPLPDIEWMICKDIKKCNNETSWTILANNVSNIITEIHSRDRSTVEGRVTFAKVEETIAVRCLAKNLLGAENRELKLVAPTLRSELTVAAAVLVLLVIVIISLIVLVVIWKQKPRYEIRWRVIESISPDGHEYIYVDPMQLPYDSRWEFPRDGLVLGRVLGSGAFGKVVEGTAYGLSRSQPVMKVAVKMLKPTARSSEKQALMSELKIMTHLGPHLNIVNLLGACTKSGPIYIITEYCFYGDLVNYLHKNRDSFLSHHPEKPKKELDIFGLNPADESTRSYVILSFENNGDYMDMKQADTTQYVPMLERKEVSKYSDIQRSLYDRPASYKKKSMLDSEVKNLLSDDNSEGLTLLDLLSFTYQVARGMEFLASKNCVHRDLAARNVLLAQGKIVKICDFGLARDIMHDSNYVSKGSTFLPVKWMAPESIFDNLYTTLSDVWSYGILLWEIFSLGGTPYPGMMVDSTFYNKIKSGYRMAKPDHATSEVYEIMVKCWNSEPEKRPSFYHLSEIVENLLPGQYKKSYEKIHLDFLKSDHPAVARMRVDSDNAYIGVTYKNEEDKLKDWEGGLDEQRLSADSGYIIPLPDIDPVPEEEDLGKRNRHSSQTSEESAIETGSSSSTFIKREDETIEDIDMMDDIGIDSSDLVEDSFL
Mitogen-activated protein kinase kinase kinase 2 (Homo sapiens), sequence (Q9Y2U5 whole entry): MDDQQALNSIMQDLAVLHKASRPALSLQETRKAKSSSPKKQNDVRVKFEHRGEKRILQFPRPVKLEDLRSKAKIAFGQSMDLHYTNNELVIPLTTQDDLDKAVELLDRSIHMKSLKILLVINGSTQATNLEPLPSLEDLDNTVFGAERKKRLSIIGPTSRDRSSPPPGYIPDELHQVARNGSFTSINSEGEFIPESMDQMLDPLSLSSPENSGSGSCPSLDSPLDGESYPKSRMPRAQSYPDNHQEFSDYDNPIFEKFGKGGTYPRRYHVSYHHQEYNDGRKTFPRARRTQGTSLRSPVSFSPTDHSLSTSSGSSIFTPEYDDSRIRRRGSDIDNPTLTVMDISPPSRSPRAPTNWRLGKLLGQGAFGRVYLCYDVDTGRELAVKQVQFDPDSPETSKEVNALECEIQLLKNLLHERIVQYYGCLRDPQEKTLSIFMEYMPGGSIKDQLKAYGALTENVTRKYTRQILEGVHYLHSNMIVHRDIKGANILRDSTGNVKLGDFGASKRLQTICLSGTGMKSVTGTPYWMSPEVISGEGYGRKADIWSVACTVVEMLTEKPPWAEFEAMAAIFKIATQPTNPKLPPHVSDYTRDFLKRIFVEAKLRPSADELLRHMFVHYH
Cyclin-dependent kinase-like 5 (Homo sapiens), sequence (O76039 whole entry): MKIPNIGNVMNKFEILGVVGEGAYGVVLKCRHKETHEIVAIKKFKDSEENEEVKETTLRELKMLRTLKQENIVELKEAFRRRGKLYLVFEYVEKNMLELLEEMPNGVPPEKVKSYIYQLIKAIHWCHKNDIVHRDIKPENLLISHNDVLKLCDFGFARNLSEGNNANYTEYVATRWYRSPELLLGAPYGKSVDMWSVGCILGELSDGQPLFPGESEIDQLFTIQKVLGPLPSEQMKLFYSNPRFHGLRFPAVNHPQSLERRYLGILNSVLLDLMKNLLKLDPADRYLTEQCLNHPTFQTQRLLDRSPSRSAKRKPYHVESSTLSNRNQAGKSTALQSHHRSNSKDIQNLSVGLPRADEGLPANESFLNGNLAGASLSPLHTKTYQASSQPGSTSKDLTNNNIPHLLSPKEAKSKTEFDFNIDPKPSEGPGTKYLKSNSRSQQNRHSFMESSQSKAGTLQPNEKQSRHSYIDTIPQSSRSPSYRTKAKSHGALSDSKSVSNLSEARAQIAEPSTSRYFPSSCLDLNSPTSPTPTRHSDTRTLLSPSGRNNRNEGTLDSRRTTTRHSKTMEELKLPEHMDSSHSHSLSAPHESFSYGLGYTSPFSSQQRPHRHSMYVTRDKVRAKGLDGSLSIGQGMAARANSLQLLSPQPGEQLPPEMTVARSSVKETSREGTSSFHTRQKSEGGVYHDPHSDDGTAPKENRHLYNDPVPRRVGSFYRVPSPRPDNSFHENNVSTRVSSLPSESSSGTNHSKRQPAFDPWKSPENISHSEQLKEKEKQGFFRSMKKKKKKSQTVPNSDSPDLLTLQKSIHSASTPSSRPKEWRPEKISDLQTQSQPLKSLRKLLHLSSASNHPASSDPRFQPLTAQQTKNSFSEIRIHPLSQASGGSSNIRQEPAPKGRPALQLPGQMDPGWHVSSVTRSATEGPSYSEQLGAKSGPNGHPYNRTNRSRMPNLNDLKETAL
Dual specificity mitogen-activated protein kinase kinase 7 (Homo sapiens), sequence (O14733 whole entry): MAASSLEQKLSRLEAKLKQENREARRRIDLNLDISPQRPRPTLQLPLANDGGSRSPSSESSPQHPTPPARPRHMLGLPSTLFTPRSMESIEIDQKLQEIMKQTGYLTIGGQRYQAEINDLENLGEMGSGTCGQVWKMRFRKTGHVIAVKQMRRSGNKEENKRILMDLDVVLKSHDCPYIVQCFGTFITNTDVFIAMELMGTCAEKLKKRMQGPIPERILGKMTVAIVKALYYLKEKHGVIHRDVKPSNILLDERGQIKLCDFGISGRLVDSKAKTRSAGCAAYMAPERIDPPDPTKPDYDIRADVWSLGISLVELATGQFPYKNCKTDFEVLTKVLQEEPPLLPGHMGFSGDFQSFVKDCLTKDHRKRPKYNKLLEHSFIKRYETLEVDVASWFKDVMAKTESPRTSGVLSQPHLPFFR
Phosphatidylinositol 3-kinase C2 domain-containing subunit gamma (Homo sapiens), sequence (O75747 whole entry, the tested form may be a part): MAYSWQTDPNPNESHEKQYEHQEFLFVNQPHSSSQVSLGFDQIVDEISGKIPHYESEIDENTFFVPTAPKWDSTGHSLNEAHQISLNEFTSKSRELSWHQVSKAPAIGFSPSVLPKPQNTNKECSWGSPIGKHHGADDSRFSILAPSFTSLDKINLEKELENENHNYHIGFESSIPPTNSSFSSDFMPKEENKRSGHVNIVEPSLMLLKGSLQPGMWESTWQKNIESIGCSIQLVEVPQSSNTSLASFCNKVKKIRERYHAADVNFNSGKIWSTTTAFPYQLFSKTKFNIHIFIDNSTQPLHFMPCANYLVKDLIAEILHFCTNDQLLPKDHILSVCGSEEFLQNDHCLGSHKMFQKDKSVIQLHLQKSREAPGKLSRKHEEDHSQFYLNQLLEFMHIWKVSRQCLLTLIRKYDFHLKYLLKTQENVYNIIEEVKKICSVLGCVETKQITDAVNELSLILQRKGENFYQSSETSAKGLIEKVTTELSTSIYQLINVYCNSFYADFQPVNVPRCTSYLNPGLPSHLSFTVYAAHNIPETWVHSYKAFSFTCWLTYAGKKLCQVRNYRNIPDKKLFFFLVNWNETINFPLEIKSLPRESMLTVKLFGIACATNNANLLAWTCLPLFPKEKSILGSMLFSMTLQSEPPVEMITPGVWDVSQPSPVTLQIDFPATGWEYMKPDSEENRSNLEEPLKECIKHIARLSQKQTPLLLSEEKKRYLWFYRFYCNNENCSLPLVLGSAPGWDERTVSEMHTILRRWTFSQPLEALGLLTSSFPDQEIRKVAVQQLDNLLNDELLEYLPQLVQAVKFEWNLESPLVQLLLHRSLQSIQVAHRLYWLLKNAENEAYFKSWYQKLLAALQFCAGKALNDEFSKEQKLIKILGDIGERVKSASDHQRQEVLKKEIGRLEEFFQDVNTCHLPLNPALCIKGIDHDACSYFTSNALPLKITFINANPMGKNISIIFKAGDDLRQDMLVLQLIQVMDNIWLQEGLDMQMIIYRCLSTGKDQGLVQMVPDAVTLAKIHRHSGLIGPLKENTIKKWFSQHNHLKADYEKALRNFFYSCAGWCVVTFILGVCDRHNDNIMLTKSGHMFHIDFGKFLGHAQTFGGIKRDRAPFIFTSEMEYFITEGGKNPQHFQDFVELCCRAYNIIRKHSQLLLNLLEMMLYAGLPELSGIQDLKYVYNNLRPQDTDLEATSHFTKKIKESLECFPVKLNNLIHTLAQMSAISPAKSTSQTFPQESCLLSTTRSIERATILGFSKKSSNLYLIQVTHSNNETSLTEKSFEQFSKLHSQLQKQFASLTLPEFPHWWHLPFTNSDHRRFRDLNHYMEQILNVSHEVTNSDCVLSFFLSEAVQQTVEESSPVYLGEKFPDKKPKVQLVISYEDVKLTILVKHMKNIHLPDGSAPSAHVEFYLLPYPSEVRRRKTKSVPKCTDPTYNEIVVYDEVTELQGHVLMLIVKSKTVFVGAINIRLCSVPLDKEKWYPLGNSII
Dual specificity protein kinase CLK2 (Homo sapiens), sequence (P49760 whole entry, looked up): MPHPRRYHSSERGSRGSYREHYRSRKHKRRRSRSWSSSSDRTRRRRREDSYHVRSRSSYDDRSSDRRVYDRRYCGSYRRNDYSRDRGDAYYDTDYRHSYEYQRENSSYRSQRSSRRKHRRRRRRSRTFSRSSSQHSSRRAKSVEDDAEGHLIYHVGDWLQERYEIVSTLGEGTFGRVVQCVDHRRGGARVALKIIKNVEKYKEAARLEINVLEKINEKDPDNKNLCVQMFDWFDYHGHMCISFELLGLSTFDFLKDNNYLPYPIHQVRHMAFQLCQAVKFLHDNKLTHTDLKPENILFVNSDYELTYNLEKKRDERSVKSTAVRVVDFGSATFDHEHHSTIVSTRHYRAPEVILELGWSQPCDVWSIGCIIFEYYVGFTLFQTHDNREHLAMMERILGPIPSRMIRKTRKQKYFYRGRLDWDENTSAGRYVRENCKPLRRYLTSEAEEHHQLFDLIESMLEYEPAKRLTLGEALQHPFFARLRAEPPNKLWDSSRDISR

N#Cc1ccc(Nc2ccc3[nH]c(=O)[nH]c3c2)c(Cl)c1
residual activity [1]: 55%
residual activity [2]: 100%
residual activity [3]: 87%
residual activity [4]: 100%
residual activity [5]: 94%
residual activity [6]: 89%
residual activity [7]: 98%
residual activity [8]: 100%
residual activity [9]: 97%
residual activity [10]: 84%
residual activity [11]: 100%
residual activity [12]: 100%
residual activity [13]: 100%
residual activity [14]: 100%
residual activity [15]: 100%
residual activity [16]: 100%
residual activity [17]: 78%
residual activity [18]: 100%
residual activity [19]: 70%
residual activity [20]: 100%
residual activity [21]: 100%
residual activity [22]: 100%
inhibition [23]: 4.98%
residual activity [24]: 100%
residual activity [25]: 96%
residual activity [26]: 100%
residual activity [27]: 82%
residual activity [28]: 100%
residual activity [29]: 100%
residual activity [30]: 100%
residual activity [31]: 90%
residual activity [32]: 90%
residual activity [33]: 95%
residual activity [34]: 100%
residual activity [35]: 78%
residual activity [36]: 91%
residual activity [37]: 92%
residual activity [38]: 100%
residual activity [39]: 85%
residual activity [40]: 100%
residual activity [41]: 100%
residual activity [42]: 68%
residual activity [43]: 82%
residual activity [44]: 89%
residual activity [45]: 100%

O=C1CCc2cc(Nc3cc(OC4CCOCC4)c([N+](=O)[O-])cc3Cl)ccc2N1
residual activity [1]: 40%
residual activity [2]: 75%
residual activity [3]: 99%
residual activity [4]: 100%
residual activity [5]: 91%
residual activity [6]: 100%
residual activity [7]: 89%
residual activity [8]: 96%
residual activity [9]: 100%
residual activity [10]: 75%
residual activity [11]: 84%
residual activity [12]: 100%
residual activity [13]: 100%
residual activity [14]: 74%
residual activity [15]: 86%
residual activity [16]: 96%
residual activity [17]: 71%
residual activity [18]: 97%
residual activity [19]: 65%
residual activity [20]: 100%
residual activity [21]: 93%
residual activity [22]: 97%
inhibition [23]: 3.3%
residual activity [24]: 89%
residual activity [25]: 92%
residual activity [26]: 100%
residual activity [27]: 83%
residual activity [28]: 99%
residual activity [29]: 100%
residual activity [30]: 100%
residual activity [31]: 99%
residual activity [32]: 96%
residual activity [33]: 94%
residual activity [34]: 100%
residual activity [35]: 68%
residual activity [36]: 90%
residual activity [37]: 88%
residual activity [38]: 99%
residual activity [39]: 86%
residual activity [40]: 94%
residual activity [41]: 81%
residual activity [42]: 98%
residual activity [43]: 80%
residual activity [44]: 82%
residual activity [45]: 100%

— ChEMBL document CHEMBL4507304, “Data for DCP probe TP-021” (2021)
